Measured values taken from patent publication US5444061A, “Anti-cancer compounds” (British Technology Group Limited, priority 1991, dated 1995).

Assays:
[1] = tested on: human breast, ovarian and liver cancer; conditions: humans; cited from earlier work
[2] = particularly in relation to the liver and kidneys; cited from earlier work
L1210 cell line = test: Inhibition of growth of the leukaemia cell line L1210 in cell culture; assay type: cell-based; conditions: Mus musculus
From the text: The test may be similar to that described in UK Patent Specification No. 2065653B; and […]

[3] = In vivo stability to cleavage of the central amide linkage of the dipeptide (i.p., mice); set-up: species or system mouse (male C57/DBA2 F1 hybrid); conditions: 100 mg/kg i.p., 1 hour; for Stability (cleavage of the central amide linkage of the dipeptide): based on dipeptide and cleavage product found in plasma and liver
Experimental: In vivo tests in mice at a dosage of 100 mg/kg with various compounds according to the invention have shown a substantial lack of cleavage of the central amide linkage of the dipeptide as assessed by measurement of the amount of the cleavage product as a percentage of the total of parent compound and cleavage product present in the liver or plasma of a mouse sacrificed 1 hour after intraperitoneal administration of the dipeptide, i.e. cleavage was within the limit of experimental detection which is about 5%. Although a minor degree of cleavage of this amide linkage of the quinazoline is acceptable when it is used in practice, a level of cleavage on administration in vivo of less than 10% is preferred, with no more than about 5% being desirable, especially 2% or 1% or less.
The four compounds were also tested for in vivo stability to cleavage of the central amide linkage of the dipeptide. This test comprised injecting the compound intraperitoneally into male C57/DBA2 (F1 hybrid) mice at a standard dosage rate of 100 mg/kg, sacrificing the animals after 1 hour, removing the plasma, liver and kidneys, homogenising these individually in nine times the volume of 0.1 M Tris HCl at pH 10, precipitating the protein and analysing the product in 0.05 M NaHCO3 by hplc on a Sperisorb C-6 column eluting with acetonitrile/sodium acetate of pH 5.0. UV measurements at 280 and 313 nm were used to detect the dipeptide and the breakdown product of cleavage at the central amide bond of the dipeptide, i.e. the L-glutamic acid derivative or D-glutamic acid derivative. Identification of the parent compound and any breakdown product was effected by Rt comparisons against standard samples of these compounds which have been subjected to the same treatment as the liver, kidney and plasma samples.
The results obtained are shown in the Table, the identification of a compound which is "not cleaved" as compared with a compound which is "cleaved" being made on the basis of the amount of the dipeptide and its cleavage product found in the plasma and the liver.

MCF-7 cell line = test: Inhibition of growth of the human breast cancer cell line MCF-7 in cell culture; assay type: cell-based; conditions: MCF7, MCF-7 cell culture, read-out: IC50 against the MCF-7 cell line
From the text: The test may be similar to that described by Lippman et al (Cancer Res., 1976, 36, 4595).

SMILES | IC50 (L1210 cell line) | Stability (cleavage of the central amide linkage of the dipeptide) [3] | IC50 (MCF-7 cell line) | location of the remaining part of the parent dipeptide which was detected [3] | cleavage product in the liver, as a percentage of the total drug administered ([3]; liver, typical experiment) | parent dipeptide present in the liver, as a percentage of the total drug administered ([3]; liver, typical experiment) | activity against human breast, ovarian and liver cancer [1] | toxicity in humans [2] | cleavage product accompanying the parent dipeptide in the plasma [3]
C#CCN(Cc1ccc2nc(N)[nH]c(=O)c2c1)c1ccc(C(=O)N[C@@H](CCC(=O)O)C(=O)O)cc1 [CB3717] | – | – | – | – | – | – | promising activity against human breast, ovarian and liver cancer | shows symptoms of toxicity in humans, particularly in relation to the liver and kidneys | –
C#CCN(Cc1ccc2nc(C)[nH]c(=O)c2c1)c1ccc(C(=O)N[C@H](CCC(=O)N[C@@H](CCC(=O)O)C(=O)O)C(=O)O)cc1 [D-glu-L-glu] | 3.4 µM | cleaved | – | – | – | – | – | – | –

More lines, main results first:

IC50 (L1210 cell line) | Stability (cleavage of the central amide linkage of the dipeptide) [3] | IC50 (MCF-7 cell line) | location of the remaining part of the parent dipeptide which was detected [3] | cleavage product in the liver, as a percentage of the total drug administered ([3]; liver, typical experiment) | parent dipeptide present in the liver, as a percentage of the total drug administered ([3]; liver, typical experiment) | SMILES | activity against human breast, ovarian and liver cancer [1] | toxicity in humans [2] | cleavage product accompanying the parent dipeptide in the plasma [3]
0.18 µM | not cleaved | 0.3 µM | found mostly in the plasma | no cleavage product | 27±2% | C#CCN(Cc1ccc2nc(C)nc(O)c2c1)c1ccc(C(=O)N[C@@H](CCC(=O)N[C@H](CCC(=O)O)C(=O)O)C(=O)O)cc1 [Example 1, N-p-[N-(3,4-Dihydro-2-methyl-4-oxoquinazolin-6-ylmethyl)-N-(prop-2-ynyl)amino]benzoyl-L-γ-glutamyl-D-glutamic acid] | – | – | no cleavage product
1.3 µM | not cleaved | – | – | – | – | C#CCN(Cc1ccc2nc(C)nc(O)c2c1)c1ccc(C(=O)N[C@H](CCC(=O)N[C@H](CCC(=O)O)C(=O)O)C(=O)O)cc1 [Example 10, N-p-[N-(3,4-dihydro-2-methyl-4-oxoquinazolin-6-ylmethyl)-N-(prop-2-ynyl)amino]benzoyl-D-γ-glutamyl-D-glutamic acid] | – | – | –
0.1 µM | cleaved | – | found mostly in the plasma | – | 1.6±0.8% | C#CCN(Cc1ccc2nc(C)nc(O)c2c1)c1ccc(C(=O)N[C@@H](CCC(=O)N[C@@H](CCC(=O)O)C(=O)O)C(=O)O)cc1 [L-glu-L-glu] | – | – | a significant amount of the cleavage product
